# Assay results published in USRE36187E, “Acyclic pyrrolo [2,3-d]pyrimidine analogs as antiviral agents” (The Regents of the University of Michigan, priority 1994, dated 1999).
# Columns and labels:
# [1] = previously reported; cited from earlier work
# HCMV [2] = assay: HCMV plaque (focus) reduction assay in HFF cells; assay type: cell-based, human cytomegalovirus (Towne strain); conditions: in words
# Description: (§1) The 148 strain of HSV-1 was used in most experiments and was provided by Dr. T. W. Schafer of Schering Corporation. The HF strain of HSV-1 was used in selected experiments and was obtained from Dr. G. H. Cohen, University of Pennsylvania. The Towne strain, plaque-purified isolate Po, of HCMV was a gift of Dr. Mark Stinski, University of Iowa.
# Stock HCMV was prepared by infecting HFF cells at a multiplicity of infection (m.o.i.) of less than 0.01 plaque-forming units (p.f.u.) per cell. Cell growth medium was changed every four days until cytopathology was evident in all cells (approximately 21 days). Supernatant fluids were retained as the virus stock. Four days later, the remaining cells were disrupted by three cycles of freeze-thawing and the cell plus medium held as an additional source of virus. Storage was in liquid nitrogen.
# (§2) HCMV was titered in 24-well cluster dishes which were planted to contain 5×10^4 HFF cells/well, grown as described above. When the cells were 70 to 80% confluent, 0.2 ml of the virus suspension was added per wall and adsorbed as described above. At least three ten-fold dilutions of each preparation were used. Following virus adsorption, the cell sheets were overlayed with 0.5% methocel (4000 CPS) in maintenance medium [(MEM) with 1.1 gm/liter NaHCO3, 100 units/ml penicillin G, 100 μg/ml streptomycin, and 5% fetal bovine serum]. The cultures were incubated in a humidified atmosphere of 4% CO2 -96% air. Viral foci were visible 5 to 7 days after infection using at least 10-fold magnification. Cells were fixed and stained by a 10-minute exposure to a 0.1% solution of crystal violet in 20% methanol 7 to 12 days after infection. Microscopic foci were enumerated at 20-fold magnification using a Nikon Profile Projector.
# The effect of compounds of the replication of HCMV has been measured using both a plaque (focus) reduction assay and a titer (yield) reduction assay. For the former, HFF cells in 24-well culture dishes were infected with approximately 50 p.f.u. of HCMV per well using the procedures detailed above. Compounds dissolved in growth medium were added in three to six selected concentrations to triplicate wells following virus adsorption. Following incubation at 37° C. for 7 to 10 days, cell sheets were fixed, stained and microscopic foci were enumerated as described above. Drug effects were calculated as a percentage of reduction in number of foci in the presence of each drug concentration compared to the number observed in the absence of drug. DHPG (ganciclovir) was used as a positive control in all experiments.
# (§3) Dose-response relationships were used to compare drug effects. These were constructed by linearly regressing the percent inhibition of parameters derived in the preceding sections against log drug concentrations. The 50% inhibitory (I50) concentrations were calculated from the regression lines using the methods described by Goldstein. See Goldstein, A., Biostatistics: An Introductory Text, MacMillan, N.Y., 1964, pp. 156-161. Along with the I50 concentration for visual cytotoxicity, the averaged I50 concentrations are compared to I50 concentrations for inhibition for HCMV or HSV-1 replication. Compounds for which the ratio of cytotoxicity I50 concentrations to antiviral I50 concentrations (in vitro therapeutic index) were greater than 10, were considered for further study.
# KB cells = assay: Growth of KB cells (population doubling); assay type: cell-based, human
# Description: (§4) Population doubling times and cell viability were measured in uninfected HFF and/or KB cells. Cells were planted in replicate 6-well plastic tissue culture dishes or in 25 cm^2 flasks as described above in part 1. Following an incubation period during which cells attached to the substrate, medium was decanted, the cell sheet rinsed once with HBS, and fresh medium added. The medium consisted of MEM(E) with 1.1 gm NaHCO3 /liter and 10% fetal bovine or calf serum plus appropriate log or half-log concentrations of drug. After additional periods of incubation from 1 to 72 hours at 37° C., cells were harvested by means of 0.05% trypsin plus 0.02% EDTA in a HEPES-buffered salt solution. Cells were enumerated using either a Coulter counter or a hemocytometer and viability determining using […] dye exclusion.
# In more extensive cytotoxicity testing, the halogenated compounds were tested for effects on the growth of KB cells. Populations doubling times were calculated from the logarithmic portions of growth curves and were as follows: […]
# HFF cells = assay: Growth of human diploid fibroblasts (HFF cells); assay type: cell-based; conditions: for population doubling of HFF cells: 100 μM, control cells underwent two doublings
# Description: as §4
# The effect of these compounds on the growth of human diploid fibroblasts (HFF cells) was less pronounced. During a 70-hour incubation, control cells underwent two doublings. […] A 100 μM concentration reduced the number of cells by less than 10%.
# HCMV [3] = assay: HCMV titer (yield) reduction assay in HFF cells; assay type: cell-based, human cytomegalovirus (Towne strain); conditions: for HCMV titer reduction, fold better than acyclovir: FIG. 1; for HCMV titer reduction activity: in words, FIG. 2 or FIG. 3
# Excerpt: as §1, §2
# For titer reduction assays, HFF cells were planted as described above in 24-well cluster dishes or in 25 cm^2 flasks. When monolayers were approximately 70% confluent, HCMV was added at a m.o.i. of 0.5 p.f.u. per cell and adsorbed as detailed above. Compounds dissolved in growth medium were added in one or one-half logarithm 10 dilutions and incubation continued at 37° C. After 7 to 10 days of incubation, culture dishes or flasks were frozen at […] For titer determination, cells were thawed and then subjected to two more cycles of freezing and thawing at 37° C. Serial, one-logarithm10 dilutions of the final suspension were prepared and inoculated onto new cultures of HFF cells. Titer determination was as detailed above in part (1) (b).
# as §3
# MCMV = assay: Mortality of mice infected with murine cytomegalovirus; assay type: in vivo
# Description: Compound UMJD 183 was tested in mice infected with murine cytomegalovirus (MCMV). This animal model has been recognized as having capabilities predictive of efficacy in humans.
# (§5) Compound UMJD 183 and the drug ganciclovir (DHPG) were administered to groups of 15 mice each at doses and times of administration shown in Table 3. Each compound at all doses was administered intraperitoneally twice daily for five days beginning at either 6, 24 or 48 hours after virus inoculation. Animals were observed daily and the number dying each day recorded.
# ^a Animlas were treated i.p. twice daily for 5 days with the doses
# stated above. Treatment was initiated at the times indicated following
# [4] = Drug toxicity control in uninfected mice; assay type: in vivo
# Description: as §5
# Even when the compound was administered 48 hours after virus infection, compound UMJD 183 reduced mortality from 80-93% in controls to 40% in the presence of 5.6 mg/kg of the drug. When UMJD 183 was administered sooner, 6 or 24 hours after virus infection, mortality was reduced further to 7 or 20%, respectively.
# ^d Drug toxicity control. No virus administered.
# [5] = Visual cytotoxicity in BSC-1 cells; assay type: cell-based, African green monkey; conditions: monkey, visual cytotoxicity at time of HSV-1 plaque enumeration, read-out: 50% Inhibitory Concentration, Cytotoxicity BSC
# Excerpt: Cytotoxicity produced in HFF and BSC-1 cells was estimated by visual scoring of cells not affected by virus infection in the HCMV and HSV-1 plaque reduction assays. Cytopathology was estimated at 35- and 60-fold magnification and scored on a zero to four plus basis. Wells were scored on the day of staining.
# [6] = 1.9 mg/kg i.p. twice daily, from 6 h
# [7] = 1.9 mg/kg i.p. twice daily, from 24 h
# [8] = 1.9 mg/kg i.p. twice daily, from 48 h
# [9] = 5.6 mg/kg i.p. twice daily, from 6 h
# [10] = 5.6 mg/kg i.p. twice daily, from 24 h
# [11] = 5.6 mg/kg i.p. twice daily, from 48 h
# [12] = 16.7 mg/kg i.p. twice daily, from 6 h
# [13] = 16.7 mg/kg i.p. twice daily, from 24 h
# [14] = 16.7 mg/kg i.p. twice daily, from 48 h
# [15] = 50 mg/kg i.p. twice daily, from 6 h
# [16] = 50 mg/kg i.p. twice daily, from 24 h
# [17] = 50 mg/kg i.p. twice daily, from 48 h
compound,measurement,setting,value
NC(=O)c1cn([C@@H]2O[C@H](CO)[C@@H](O)[C@H]2O)c2ncnc(N)c12 [sangivamycin],broad spectrum antiviral activity,[1],Broad spectrum antiviral activity
"Nc1ncnc2c1c(Cl)cn2COCCO [UMJD 100, 4-Amino-5-chloro-7-(2-hydroxyethoxymethyl)pyrrolo[2,3-d]-pyrimidine]",activity against HCMV,HCMV [2],active against HCMV
same,effect on KB cell growth,"KB cells; 100 μM, in words",affected KB cell growth to only a minor extent
same,decrease in number of HFF cells,"HFF cells; 10 or 32 μM, 70 hours, in words",no decrease in the number of cells
"Nc1ncnc2c1c(I)cn2COCCO [UMJD 104, 4-Amino-5-iodo-7-(2-hydroxyethoxymethyl)pyrrolo[2,3-d]-pyrimidine]",activity against HCMV,HCMV [2],active against HCMV
same,"HCMV titer reduction, fold better than acyclovir",HCMV [3],approximately 10 fold
same,population doubling of HFF cells,HFF cells; 70 hours,one population doubling
same,effect on growth of HFF cells,HFF cells; in words,more pronounced
"OCC(CO)OCn1cc(Br)c2c(NO)ncnc21 [UMJD 299, 4-hydroxylamino-5-bromo-7-[(1,3-dihydroxy-2-propoxy)methyl]pyrrolo[2,3-d]pyrimidine]",HCMV titer reduction activity,HCMV [3],active and nearly as potent as the 4-amino analogs
Nc1ncnc2c1ccn2[C@@H]1O[C@H](CO)[C@@H](O)[C@H]1O [tubercidin],broad spectrum antiviral activity,[1],Broad spectrum antiviral activity
"Nc1ncnc2c1c(Br)cn2COCCO [UMJD 102, 4Amino-5-bromo-7-(2-hydroxyethoxymethyl)pyrrolo[2,3-d]-pyrimidine]",activity against HCMV,HCMV [2],active against HCMV
same,"HCMV titer reduction, fold better than acyclovir",HCMV [3],approximately 10 fold
same,cytostatic effect,KB cells; in words,cytostatic
same,population doubling of HFF cells,HFF cells; 70 hours,one population doubling
same,effect on growth of HFF cells,HFF cells; in words,more pronounced
"OCC(CO)OCn1cc(I)c2c(NO)ncnc21 [UMJD 329, 4-hydroxylamino-5-iodo-7-[(1,3-dihydroxy-2-propoxy)methyl]pyrrolo[2,3-d]pyrimidine]",HCMV titer reduction activity,HCMV [3],active and nearly as potent as the 4-amino analogs
"Nc1ncnc2c1c(Br)cn2COC(CO)CO [UMJD 183, 4-amino-5-bromo-7-[(1,3-dihydroxy-2-propoxy)methyl]-pyrrolo[2,3-d]pyrimidine]",HCMV titer reduction activity,HCMV [3],most active
same,time of KB cell growth in the presence of the drug before slowing or stopping,KB cells; KB cells,up to 20 hours
same,effect on growth of KB cells,KB cells; in words,"growth of KB cells also was inhibited, but to a lesser extent"
same,growth in the presence of up to 32 μM drug,"KB cells; up to 32 μM, 50 hours",at a reduced rate
same,MDD (Mean Day of Death),MCMV; [6],6.2
same,Mortality Percent,MCMV; [6],33%
same,MDD (Mean Day of Death),MCMV; [7],4.8
same,Mortality Percent,MCMV; [7],60%
same,MDD (Mean Day of Death),MCMV; [8],4.8
same,Mortality Percent,MCMV; [8],67%
same,MDD (Mean Day of Death),MCMV; [9],8.0
same,Mortality Percent,MCMV; [9],7%
same,MDD (Mean Day of Death),MCMV; [10],6.3
same,Mortality Percent,MCMV; [10],20%
same,MDD (Mean Day of Death),MCMV; [11],5.5
same,Mortality Percent,MCMV; [11],40%
same,increase in number of animals surviving,"MCMV; 5.6 mg/kg i.p., in words",highly significant increases in the number of animals surviving the virus infection
same,MDD (Mean Day of Death),MCMV; [12],8.7
same,Mortality Percent,MCMV; [12],60%
same,MDD (Mean Day of Death),MCMV; [13],7.1
same,Mortality Percent,MCMV; [13],80%
same,MDD (Mean Day of Death),MCMV; [14],8.4
same,Mortality Percent,MCMV; [14],87%
same,MDD (Mean Day of Death),MCMV; [15],10.8
same,Mortality Percent,MCMV; [15],60%
same,MDD (Mean Day of Death),MCMV; [16],8.8
same,Mortality Percent,MCMV; [16],93%
same,MDD (Mean Day of Death),MCMV; [17],7.5
same,Mortality Percent,MCMV; [17],97%
same,effect on life span (mean day of death),"MCMV; all doses, i.p.",prolonged life span (increased the mean day of death) at all doses
same,"MDD (Mean Day of Death), Toxicity","[4]; 16.7 mg/kg, no virus",5.0
same,deaths in uninfected animals,"[4]; all doses together, i.p.",1 death in 60 animals
same,toxicity in uninfected animals,"[4]; in words, i.p.",virtually no toxicity
N#Cc1cn([C@@H]2O[C@H](CO)[C@@H](O)[C@H]2O)c2ncnc(N)c12 [toyocamycin],broad spectrum antiviral activity,[1],Broad spectrum antiviral activity
"NC(=S)c1cn(COCCO)c2ncnc(N)c12 [UMJD 229, 4-Amino-7-(2-hydroxyethoxymethyl)pyrrolo[2,3-d]pyrimidine-5-thiocarboxamide]",activity against HCMV,HCMV [2],active against HCMV
"Nc1nc2c(ncn2COCCO)c(=O)[nH]1 [Acyclovir, reference compound]",activity against HCMV,HCMV [2],only modest activity against HCMV
same,CC50,[5],> 100 µM
"OCC(CO)OCn1cc(Cl)c2c(NO)ncnc21 [UMJD 328, 4-hydroxylamino-5-chloro-7-[(1,3-dihydroxy-2-propoxy)methyl]pyrrolo[2,3-d]pyrimidine]",HCMV titer reduction activity,HCMV [3],active and nearly as potent as the 4-amino analogs
